Test results as given in patent US20130065834A1, “MODULATORS OF PROTEASOME ACTIVITY” (SALK INSTITUTE FOR BIOLOGICAL STUDIES, priority 2011, published 2013).
Entries after “also recorded” stand apart in the source; their conditions may differ. Residues, ends and D or L forms follow the SMILES beside them. *: point of attachment. Cbz = O=C(OCc1ccccc1)*

Tests used:
[1] = biological target: T1, chymotrypsin-like activity of the proteasome (Caenorhabditis elegans, UniProt Q9XUV0); assay: 26S proteasome fluorogenic peptidase assay in worm lysate, chymotrypsin-like (Z-GGL-AMC / Suc-LLVY-AMC); assay type: biochemical, C. elegans; conditions: inhibitor 20 min prior to substrate, vs DMSO
T1 construct: worms were lysed in proteasome activity assay buffer; from tissue; host or cells: whole-worm lysate of adult C. elegans (N2, glp-1(e2141), fer-15;fem-1, daf-16;glp-1, rpn-6.1 OE and RNAi-fed strains)
T1 sequence (Q9XUV0 65-284): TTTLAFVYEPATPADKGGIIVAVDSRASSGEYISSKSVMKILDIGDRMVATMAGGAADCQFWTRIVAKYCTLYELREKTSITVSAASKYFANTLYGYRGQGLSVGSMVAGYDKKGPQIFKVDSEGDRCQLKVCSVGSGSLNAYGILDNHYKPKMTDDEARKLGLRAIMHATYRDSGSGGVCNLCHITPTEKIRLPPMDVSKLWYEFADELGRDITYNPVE
Description: (§1) 26S proteasome activity assays. In vitro 26S proteasome activity assays were performed as previously described [Finley, D. Recognition and processing of ubiquitin-protein conjugates by the proteasome. Annual review of biochemistry 78, 477-513 (2009)]. Worms were lysed in proteasome activity assay buffer (50 mM Tris-HCl pH 7.5, 250 mM sucrose, 5 mM MgCl2, 0.5 mM EDTA, 2 mM ATP and 1 mM dithiothreitol) using a Precellys 24 homogenizer (Bertin technologies). Lysate was centrifuged at 10,000 g for 15 min at 4° C. 25 μg of total protein lysate was transferred to a 96-well microtiter plate (BD Falcon) and incubated with fluorogenic substrate. Fluorescence (380-nm excitation, 460-nm emission) was monitored on a microplate fluorometer (Infinite M1000, Tecan) every 5 min for 1 h at 25° C.
(§2) 26S proteasome fluorogenic peptidase assays. […] Methods in enzymology 398, 364-378 (2005)]. Briefly, worms were lysed in proteasome activity assay buffer (50 mM Tris-HCl pH 7.5, 250 mM sucrose, 5 mM MgCl2, 0.5 mM EDTA, 2 mM ATP and 1 mM dithiothreitol) using a Precellys 24 homogenizer (Bertin technologies). Lysate was centrifuged at 10,000 g for 15 min at 4° C. For each experiment, 25 μg of total protein lysate was transferred to a 96-well microtiter plate (BD Falcon) then fluorogenic substrate was added. For measuring the chymotrypsin-like activity of the proteasome either Z-Gly-Gly-Leu-AMC (Enzo) or Suc-Leu-Leu-Val-Tyr-AMC (Enzo) was used. Z-Leu-Leu-Glu-AMC (Enzo) was used to measure the caspase-like activity of the proteasome and Ac-Arg-Leu-Arg-AMC for the proteasome trypsin-like activity. Fluorescence (380-nm excitation, 460-nm emission) was monitored on a microplate fluorometer (Infinite M1000, Tecan) every 5 min for 1 h at 25° C.

[2] = system: chymotrypsin-like activity of the proteasome; assay: as above; assay type: biochemical, C. elegans; conditions: worms at 25° C., 100 μg ml^−1 for the first three days of adulthood; FIG. 11
Description: as §1, §2

[3] = biological target: T2, chymotrypsin-like activity of the proteasome (Homo sapiens, UniProt P28074); assay: 26S proteasome fluorogenic peptidase assay in human cell extracts, chymotrypsin-like; assay type: biochemical; conditions: H9 hESCs; 62.5 nM for 24 hours; vs DMSO
T2 construct: 15-25 μg of total protein of cell lysates were transferred to a 96-well microtiter plate; endogenous in cells; host or cells: H9 and HUES-6 hESCs and derived NPCs, neurons, trophoblasts and fibroblasts; BJ fibroblasts, astrocytes, HEK293T
T2 sequence (P28074 60-263): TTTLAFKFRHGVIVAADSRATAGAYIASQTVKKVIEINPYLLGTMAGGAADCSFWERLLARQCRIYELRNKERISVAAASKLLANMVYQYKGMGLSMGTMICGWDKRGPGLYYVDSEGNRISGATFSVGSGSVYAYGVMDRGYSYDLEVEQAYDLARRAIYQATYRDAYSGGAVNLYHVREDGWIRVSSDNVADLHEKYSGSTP
Description: 26S proteasome fluorogenic peptidase assays. In vitro assay of 26S proteasome activities was performed as previously described (Kisselev, A. F. & Goldberg, A. L., Methods in enzymology 398, 364-378 (2005)). Cells were collected in proteasome activity assay buffer (50 mM Tris-HCl (pH 7.5), 250 mM sucrose, 5 mM MgCl2, 0.5 mM EDTA, 2 mM ATP and 1 mM dithiothreitol) and lysed by passing 10 times through a 27 gauge needle attached to a 1 ml syringe. Lysate was centrifuged at 10,000 g for 10 min at 4° C. 15-25 μg of total protein of cell lysates were transferred to a 96-well microtiter plate (BD Falcon) and then the fluorogenic substrate was added to lysates. For measuring the chymotrypsin-like activity of the proteasome Applicants used either Z-Gly-Gly-Leu-AMC (Enzo) or Suc-Leu-Leu-Val-Tyr-AMC (Enzo). Applicants used Z-Leu-Leu-Glu-AMC (Enzo) to measure the caspase-like activity of the proteasome and Ac-Arg-Leu-Arg-AMC for the proteasome trypsin-like activity. Fluorescence (380-nm excitation, 460-nm emission) was monitored on a microplate fluorometer (Infinite M1000, Tecan) every 5 min for 1 h at 25° C. Protein concentration of the cell homogenates was determined using the BCA protein assay (Pierce).

hESCs = assay: MG-132 treatment of cultured cells, cell death and detachment; assay type: cell-based, human; conditions: hESCs vs NPCs or neurons; data not shown
H9 hESCs = assay: quantitative RT-PCR in H9 hESCs; assay type: cell-based, human; conditions: 62.5 nM 24 h, relative to DMSO
Description: Lentiviral infection of human stem cells. hESC colonies growing on Matrigel were incubated with mTesR1 medium containing 10 μM ROCK inhibitor (Y-27632) for one hApplicants' and individualized using Accutase 1×. 5×10^5 cells were infected in suspension with 10 μl of concentrated lentivirus in the presence of 10 μM ROCK inhibitor. Cell suspension was centrifuged to remove virus, passed through a mesh of […] to obtain individual cells and plated back on a feeder layer of fresh MEFs in hESC cell media supplemented with 10 μM ROCK inhibitor. After a few days in culture, small hES cell colonies arose. For LV-GFP and LV-shFOXOs stable lines, GFP positive colonies were selected and manually passaged onto fresh MEFs to establish new hESC cell lines. For LV-non-targeting shRNA, shPSMD11, shPSMC2, FOXO4 OE, FOXO4 AAA OE and PSMD11 OE stable lines, Applicants performed 1 μg/ml puromycin resistance selection during 3 days and then colonies were manually passaged onto fresh MEFs to establish new hESC cell lines. […]
RNA isolation and quantitative RT-PCR. Total RNA was extracted using RNAbee (Tel-Test Inc). cDNA was created using the Quantitect Reverse Transcriptase kit (Qiagen). […] Data was analyzed with the comparative 2ΔΔCt method using β-actin and GAPDH as housekeeping genes. […]

[4] = system: polyubiquitinylated proteins, proteasome subunits, transcription factors; assay: Western blot of human cell extracts; assay type: cell-based; conditions: H9 hESCs; 62.5 nM 24 h
Description: Western Blot. For analysis of proteasome subunits, cells were collected in proteasome activity assay buffer supplemented with protease inhibitors (Roche) and lysed by passing 10 times through a 27 gauge needle attached to a 1 ml syringe. Lysate was centrifuged at 10,000 g for 10 min at 4° C. Protein concentration of the cell homogenates was determined using the BCA protein assay (Pierce). For analysis of transcription factor and polyubiquitinylated proteins, cells were harvested from tissue culture plates by cell scraping and lysed in protein cell lysis buffer (10 mM Tris-Cl pH7.4, 10 mM EDTA, 50 mM NaCl, 50 mM NaF, 1% Triton X-100, 0.1% SDS supplemented with 2 mM sodium orthovanadate, 1 mM PMSF and Complete Mini Protease and PhosSTOP inhibitor cocktail mix) for 2 hrs at 1,000 rpm and 4° C. in a Thermomixer. Protein concentrations were determined with a standard Bradford protein assay (BioRad). 20-50 μg of total protein were separated by SDS-PAGE, transferred to nitrocellulose membranes (Whatman) and subjected to immunoblotting. […]

[5] = fer-15(b26);fem-1(hc17) worm lysate

**Q.** For `CC(=O)N[C@@H](CSC(=O)[C@]1([C@@H](O)C(C)C)NC(=O)[C@H](C)[C@@H]1O)C(=O)O` [lactacystin], which “chymotrypsin-like proteasome activity (Z-GGL-AMC)” value [1, 5] is on record?
**A.** blocked activity from extracts; also recorded: blocked chymotrypsin-like proteasome activity

**Q.** What about the “chymotrypsin-like proteasome activity (Z-GGL-AMC)” value ([1]; glp-1(e2141) worm lysate) of the same compound?
**A.** blocked activity from extracts; also recorded: blocked chymotrypsin-like proteasome activity

**Q.** Which “proteasome activity in treated worms” value [2] does the source give for `O=c1[nH]c(=O)n([C@H]2C[C@H](O)[C@@H](CO)O2)cc1F` [FUdR, 5-fluoro-2′ deoxyuridine] here?
**A.** did not affect proteasome activity

**Q.** For `CC(C)C[C@@H](C=O)NC(=O)[C@H](CC(C)C)NC(=O)[C@H](CC(C)C)NC(=O)OCc1ccccc1` [MG-132] (Cbz-Leu-Leu-Leu-aldehyde), which “chymotrypsin-like proteasome activity (Z-GGL-AMC)” value [1, 5] is on record?
**A.** blocked activity from extracts; also recorded: blocked chymotrypsin-like proteasome activity

**Q.** What about the “chymotrypsin-like proteasome activity (Z-GGL-AMC)” value ([1]; glp-1(e2141) worm lysate) of the same compound?
**A.** blocked activity from extracts; also recorded: blocked chymotrypsin-like proteasome activity

**Q.** What about the “proteasome activity in hESCs” value [3] of the same compound?
**A.** sufficient to reduce proteasome activity; also recorded: dramatically decreases proteasome activity

**Q.** And the “sensitivity to proteasome inhibition (cell death and detachment)” value (hESCs)?
**A.** hESCs were more sensitive to proteasome inhibition than NPCs or neurons

**Q.** And the “pluripotency markers (Real Time PCR)” value (H9 hESCs)?
**A.** decreased pluripotency markers; also recorded: induces a decrease in pluripotency markers

**Q.** What about the polyubiquitinylated proteins [4] of the same compound?
**A.** induces accumulation of polyubiquitinylated proteins
